Reference: US20230091047A1 (priority 2019, published 2023)
Where two headings read alike, the source gives them in different places.

Experiments:
[1] = system: HBV (HepG2.117 cell line, inducibly HBV producing); assay: Anti-HBV activity: intracellular HBV DNA by real-time PCR in HepG2.117 cells after 3 days of treatment; type: cell-based, hepatitis B virus
Summary of the method: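 Inducible HBV-producing HepG2.117 line (Tet-off); 3-day exposure to serially diluted compound after induction; real-time PCR of intracellular viral DNA.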

in vitro = type: cell-based; details: human, HepG2 or HepG2.117 cells, mean value
Summary of the method: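 Luminescent ATP quantitation served as the viability endpoint following a 3- or 4-day incubation with test compounds.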

[2] = Hepatitis B virus, HepG2.117, 72 h, HepG2.117 cells, 3 days of treatment, intracellular HBV DNA by real-time PCR; mean value; read-out: EC50 (μM, mean value)
[3] = 3-days incubation (unmarked values), ATPlite
[4] = Hepatitis B virus, HepG2.117, 72 h, HepG2.117 cells, intracellular HBV DNA by real-time PCR, 3 days of treatment, mean value; read-out: EC50 (μM, mean value)
[5] = ATPlite, 3-days incubation (not marked with *)

| SMILES | EC50 [1, 2] [µM] | CC50 at 3 days (in vitro; [3]) [µM] | EC50 [1, 4] [µM] | CC50 at 3 days (in vitro; [5]) [µM] | also measured |
| --- | --- | --- | --- | --- | --- |
| COc1ccc(CNc2nc3c(c(=O)n2-c2ccc(N4CCC(NC(=O)OC(C)(C)C)C4)cc2)CCN(C(=O)c2ccc(Cl)c(Cl)c2)C3)cc1 (centres unmarked) [Compound C161, tert-butyl (1-{4-[7-(3,4-dichlorobenzoyl)-2-{[(4-methoxyphenyl)methyl]amino}-4-oxo-5,6,7,8-tetrahydropyrido[3,4-d]pyrimidin-3(4H)-yl]phenyl}pyrrolidin-3-yl)carbamate] | 2.4 | > 50 | – | – | – |
| CNC(=O)c1ccc(-n2c(N3CCOCC(C)C3)nc3c(c2=O)C[C@@H](C)N(C(=O)c2ccc(Cl)c(Cl)c2)C3)cc1 (some centres unmarked) [Compound C518] | – | – | 0.47 | > 50 | – |
| CNC(=O)c1cc(Cl)c(-n2c(NC(C)C)nc3c(c2=O)C[C@@H](C)N(C(=O)c2ccc(Cl)c(Cl)c2)C3)cc1OC [Compound C322, 5-chloro-4-[(6R)-7-(3,4-dichlorobenzoyl)-6-methyl-4-oxo-2-[(propan-2-yl)amino]-5,6,7,8-tetrahydropyrido[3,4-d]pyrimidin-3(4H)-yl]-2-methoxy-N-methylbenzamide] | 0.28 | 24.2 | – | – | – |
| COc1ccc(CNc2nc3c(c(=O)n2-c2ccccc2OC)C[C@H](C)N(C(=O)c2ccc(Cl)c(Cl)c2)C3)cc1 (single isomer, unassigned) [Compound C36Ab] | – | > 50 | – | – | EC50 ([1]; HepG2.117 cells, 3 days of treatment, intracellular HBV DNA by real-time PCR; mean value; read-out: EC50 (μM, mean value)): 2.12 µM |
| COc1ccc(CN(C)c2nc3c(c(=O)n2-c2ccccc2OC)CCN(C(=O)c2ccc(Cl)c(Cl)c2)C3)cc1 [Compound C43, 7-(3,4-dichlorobenzoyl)-3-(2-methoxyphenyl)-2-{[(4-methoxyphenyl)methyl](methyl)amino}-5,6,7,8-tetrahydropyrido[3,4-d]pyrimidin-4(3H)-one] | 5.64 | > 50 | – | – | – |
| CC(C)Nc1nc2c(c(=O)n1-c1ccc(S(C)(=O)=O)cc1)CCN(C(=O)c1cc3cc(F)c(F)cc3[nH]1)C2 [Compound C165, 7-(5,6-difluoro-1H-indole-2-carbonyl)-3-[4-(methanesulfonyl)phenyl]-2-[(propan-2-yl)amino]-5,6,7,8-tetrahydropyrido[3,4-d]pyrimidin-4(3H)-one] | 0.05 | > 50 | – | – | – |
| COc1ccc(CNc2nc3c(c(=O)n2C2COC2)CCN(C(=O)c2ccc(Cl)c(Cl)c2)C3)cc1 [Compound C58, 7-(3,4-dichlorobenzoyl)-2-{[(4-methoxyphenyl)methyl]amino}-3-(oxetan-3-yl)-5,6,7,8-tetrahydropyrido[3,4-d]pyrimidin-4(3H)-one] | 2.56 | 42.8 | – | – | – |
| CNC(=O)c1ccc(-n2c(N3CCCC3(C)C)nc3c(c2=O)C[C@@H](C)N(C(=O)c2ccc(Cl)c(Cl)c2)C3)cc1 [Compound C307, 4-[(6R)-7-(3,4-dichlorobenzoyl)-2-(2,2-dimethylpyrrolidin-1-yl)-6-methyl-4-oxo-5,6,7,8-tetrahydropyrido[3,4-d]pyrimidin-3(4H)-yl]-N-methylbenzamide] | 0.09 | 28 | – | – | – |
| CNC(=O)c1ccc(-n2c(NC(C)C)nc3c(c2=O)C[C@@H](C)N(C(=O)c2cc(C)c(C)c(Br)c2)C3)cc1 [Compound C578] | – | – | 0.11 | 33.2 | – |
| CC(=O)Nc1ccc(-n2c(NC(C)C)nc3c(c2=O)C[C@@H](C)N(C(=O)c2ccc(Cl)c(Cl)c2)C3)cc1 [Compound C409] | – | – | 0.11 | > 50 | – |
| CNc1noc2ccc(-n3c(NC(C)C)nc4c(c3=O)C[C@@H](C)N(C(=O)c3ccc(Cl)c(Cl)c3)C4)cc12 [Compound C263, (6R)-7-(3,4-dichlorobenzoyl)-6-methyl-3-[3-(methylamino)-1,2-benzoxazol-5-yl]-2-[(propan-2-yl)amino]-5,6,7,8-tetrahydropyrido[3,4-d]pyrimidin-4(3H)-one] | 0.17 | > 50 | – | – | – |
| CNC(=O)c1ccc(-n2c(NC(C)C)nc3c(c2=O)C[C@@H](C)N(C(=O)c2ccc(Cl)c(Cl)c2)C3)c(C)c1 [Compound C300a, 4-[(6R)-7-(3,4-dichlorobenzoyl)-6-methyl-4-oxo-2-[(propan-2-yl)amino]-5,6,7,8-tetrahydropyrido[3,4-d]pyrimidin-3(4H)-yl]-N,3-dimethylbenzamide] | 0.06 | > 50 | – | – | – |
| CNC(=O)c1ccc(-n2c(OC(C)C)nc3c(c2=O)C[C@@H](C)N(C(=O)c2ccc(Cl)c(Cl)c2)C3)c(Cl)c1 [Compound C403a] | – | – | 0.06 | 36.7 | – |
| CC(C)Nc1nc2c(c(=O)n1-c1ccc(-c3nccn3C)cc1Cl)C[C@@H](C)N(C(=O)c1ccc(Cl)c(Cl)c1)C2 (single isomer, unassigned) [Compound C392a] | – | – | 0.16 | 22.7 | – |
| CNC(=O)c1ccc(-n2c(NC(C)C)nc3c(c2=O)C[C@@H](C)N(C(=O)c2ccc(Cl)c(C(F)(F)F)c2)C3)c(C(F)F)c1 (single isomer, unassigned) [Compound C669a] | – | – | 0.02 | 29.8 | – |
| CNC(=O)c1ccc(-n2c(N3CC[C@H]3c3ccccc3)nc3c(c2=O)C[C@@H](C)N(C(=O)c2ccc(Cl)c(Cl)c2)C3)cc1 (single isomer, unassigned) [Compound C349, 4-[(6R)-7-(3,4-dichlorobenzoyl)-6-methyl-4-oxo-2-[(2*S)-2-phenylazetidin-1-yl]-5,6,7,8-tetrahydropyrido[3,4-d]pyrimidin-3(4H)-yl]-N-methylbenzamide] | 0.32 | 31.7 | – | – | – |
| CNC(=O)c1ccc(-n2c(NC(C)C)nc3c(c2=O)C[C@@H](C)N(C(=O)c2ccc(Cl)c(C(F)(F)F)c2)C3)nc1 [Compound C698] | 0.02 | – | – | – | CC50 at 3 days (in vitro; 3-days incubation (unmarked values), ATPlite viability): > 50 µM |
| CC(C)Nc1nc2c(c(=O)n1-c1ccc(C(=O)NC3CC3)cc1Cl)C[C@@H](C)N(C(=O)c1ccc(Cl)c(C(F)(F)F)c1)C2 (single isomer, unassigned) [Compound C673a] | – | – | 0.03 | > 25 | – |
| COc1ccc(CNc2nc3c(c(=O)[nH]2)CCN(C(=O)c2ccc(Cl)c(F)c2)C3)cc1 [Compound C106, 7-(4-chloro-3-fluorobenzoyl)-2-{[(4-methoxyphenyl)methyl]amino}-5,6,7,8-tetrahydropyrido[3,4-d]pyrimidin-4(3H)-one] | 21.1 | 27.1 | – | – | – |
| COc1ccc(CNc2nc3c(c(=O)n2-c2ccc(S(C)(=O)=O)nc2)CCN(C(=O)c2ccc(Cl)c(Cl)c2)C3)cc1 [Compound C102, 7-(3,4-dichlorobenzoyl)-3-[6-(methanesulfonyl)pyridin-3-yl]-2-{[(4-methoxyphenyl)methyl]amino}-5,6,7,8-tetrahydropyrido[3,4-d]pyrimidin-4(3H)-one] | 0.39 | > 50 | – | – | – |
| CNC(=O)c1ccc(-n2c(NC(C)C)nc3c(c2=O)C[C@@H](C)N(C(=O)c2ccc(Br)c(F)c2C)C3)cc1 [Compound C581] | – | – | 0.15 | > 50 | – |
| Cc1coc2ccc(C(=O)N3CCc4c(nc(NC(C)C)n(-c5ccc(S(C)(=O)=O)cc5)c4=O)C3)cc12 [Compound C224, 3-[4-(methanesulfonyl)phenyl]-7-(3-methyl-1-benzofuran-5-carbonyl)-2-[(propan-2-yl)amino]-5,6,7,8-tetrahydropyrido[3,4-d]pyrimidin-4(3H)-one] | 6.71 | > 50 | – | – | – |
